Consider six compounds from article PMC10799085, “A miniaturized mode-of-action profiling platform enables high throughput characterization of the molecular and cellular dynamics of EZH2 inhibition” (Scientific Reports, 2024).

“And” between values parts separate entries of the source, which are not always exact repeats. Equal values may be shown once. Read-outs that look alike come from different tables or passages of the source.

The nature of one data set: in vitro. The format is in vitro ADME. The conditions noted are these: human, Caco-2, pH 7.2, 2 µM, 2 h, 37 °C; for Papp A→B at 2 h, 2 µM: apical to basolateral, read-out: PK Caco-2 Flux Papp A-B (mean); for Papp B→A at 2 h, 2 µM: basolateral to apical, read-out: PK Caco-2 Flux Papp B-A (mean). Here is the method:
Cells were kept at 37 °C in a humidified 5% CO2 atmosphere. Before the permeation assay was run, the culture medium was replaced by an FCS-free HEPES carbonate transport buffer (pH 7.2). For assessment of monolayer integrity, the transepithelial electrical resistance was measured. Test compounds were pre-dissolved in DMSO and added either to the apical or basolateral compartment at a final concentration of 2 µM. Before and after 2 h incubation at 37 °C, samples were taken from both compartments. Analysis of compound content was conducted after precipitation with methanol by LC/MS/MS analysis. Reference compounds were analyzed in parallel as assay control. Permeability (Papp) was calculated in the apical to basolateral (A → B) and basolateral to apical (B → A) directions. The efflux ratio basolateral (B) to apical (A) was calculated by dividing Papp B–A by Papp A–B.

Data set [1] has as its system H3K27me3 mark in MDA-MB-231 cells. Description: High content analysis (HCA) of cellular H3K27me3 mark, washout format. Format: cell-based. As to conditions: for AUC (a.u.): HCA H3K27 methylation washout pIC50 AUC over all incubation/washout times; for IC50: Homo sapiens. How it is done:
In the low- and high-signal control wells, test compounds were replaced by 10 µM of EZH2 inhibitor (equal to unlabeled probe from ePCA and kPCA) or DMSO, respectively. […] After fixation, the cells were washed with PBS and incubated with 1% BSA blocking solution at RT for 1 h. Blocking solution was discarded, primary monoclonal antibody rabbit Tri-methyl-histone H3K27 (C36B11, Cell signaling) diluted 1:200 in blocking solution was added and incubated overnight at 4 °C. […] Afterwards, cells were washed three times with PBS and incubated at 4 °C until measuring. Fluorescence signals were captured by an Opera Phenix™ High Content Screening (HCA) system (Perkin Elmer) by 10× magnification. […] Microscopy images were initially visualized and preprocessed with MetaXpress High Content Image Acquisition & Analysis Software (Molecular Devices) as previously described. Raw data import, normalization, quality control and fitting curves for IC50 determination of tested compounds were done with Genedata Screener® for high-content screening. Wells with no recognizable signals were masked and the average intensity of the trimethylation signal was normalized to the DMSO control (0%).

In the next data set the test system is KARPAS-422 cells. Description: Cellular proliferation assay (AlamarBlue, 144 h). The format is cell-based. As to conditions: Homo sapiens; KARPAS-422 cells, 6-day (144 h), AlamarBlue; read-out: KARPAS (6-day) Anti-proliferation IC50. Here is the method: Cell viability was determined by means of the AlamarBlue® reagent (Thermo Fisher Scientific) following instructions from the manufacturer. […] Anti-proliferative IC50s were calculated by fitting the normalized AlamarBlue® fluorescence values to a 4-parameter logistic equation using the Electronic Notebook (ELN) software from IDBS.
In general terms: Resazurin is reduced to fluorescent resorufin, in cell work by metabolically active cells.

Data set [2] deals with T1, PRC2/EZH2Y641N (Homo sapiens, UniProt Q15910, Y641N).
T1 construct: Synthetic cDNA encoding N-terminal 6His-tagged full length EZH2^Y641N; 6His (N); made in house; host or cells: Sf9 insect cells (baculovirus co-infection)
T1 sequence (Q15910 whole entry Y641N): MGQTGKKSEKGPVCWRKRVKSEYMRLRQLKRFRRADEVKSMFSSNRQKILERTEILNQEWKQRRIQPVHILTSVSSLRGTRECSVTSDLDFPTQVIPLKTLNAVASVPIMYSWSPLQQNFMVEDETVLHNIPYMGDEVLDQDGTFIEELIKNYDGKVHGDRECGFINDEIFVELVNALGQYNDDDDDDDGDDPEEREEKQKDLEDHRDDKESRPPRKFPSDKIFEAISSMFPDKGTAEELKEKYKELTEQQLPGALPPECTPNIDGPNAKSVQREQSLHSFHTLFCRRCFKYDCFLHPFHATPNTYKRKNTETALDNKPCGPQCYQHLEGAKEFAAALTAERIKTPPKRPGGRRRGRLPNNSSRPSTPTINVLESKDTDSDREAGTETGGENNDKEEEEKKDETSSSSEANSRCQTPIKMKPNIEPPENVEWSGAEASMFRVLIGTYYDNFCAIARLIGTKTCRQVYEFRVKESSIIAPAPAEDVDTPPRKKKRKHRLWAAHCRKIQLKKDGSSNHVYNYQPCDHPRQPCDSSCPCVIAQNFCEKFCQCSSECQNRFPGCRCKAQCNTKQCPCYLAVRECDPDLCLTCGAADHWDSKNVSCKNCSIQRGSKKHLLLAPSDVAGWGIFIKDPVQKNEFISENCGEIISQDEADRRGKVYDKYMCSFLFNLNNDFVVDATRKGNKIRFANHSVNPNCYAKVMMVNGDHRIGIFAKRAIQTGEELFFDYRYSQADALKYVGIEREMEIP
T1 sequence (O75530 whole entry partner): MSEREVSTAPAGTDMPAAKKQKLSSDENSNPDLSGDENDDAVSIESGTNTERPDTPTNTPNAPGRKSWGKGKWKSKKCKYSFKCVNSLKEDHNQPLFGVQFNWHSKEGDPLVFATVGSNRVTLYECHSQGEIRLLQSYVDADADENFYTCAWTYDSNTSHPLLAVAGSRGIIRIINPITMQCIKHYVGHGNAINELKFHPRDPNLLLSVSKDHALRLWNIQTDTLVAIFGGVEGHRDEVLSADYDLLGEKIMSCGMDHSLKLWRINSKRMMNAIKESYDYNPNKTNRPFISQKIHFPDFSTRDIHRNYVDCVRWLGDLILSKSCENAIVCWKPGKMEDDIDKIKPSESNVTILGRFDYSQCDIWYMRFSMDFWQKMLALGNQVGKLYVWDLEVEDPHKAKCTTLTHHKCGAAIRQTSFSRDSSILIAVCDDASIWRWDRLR
T1 sequence (Q15022 whole entry partner): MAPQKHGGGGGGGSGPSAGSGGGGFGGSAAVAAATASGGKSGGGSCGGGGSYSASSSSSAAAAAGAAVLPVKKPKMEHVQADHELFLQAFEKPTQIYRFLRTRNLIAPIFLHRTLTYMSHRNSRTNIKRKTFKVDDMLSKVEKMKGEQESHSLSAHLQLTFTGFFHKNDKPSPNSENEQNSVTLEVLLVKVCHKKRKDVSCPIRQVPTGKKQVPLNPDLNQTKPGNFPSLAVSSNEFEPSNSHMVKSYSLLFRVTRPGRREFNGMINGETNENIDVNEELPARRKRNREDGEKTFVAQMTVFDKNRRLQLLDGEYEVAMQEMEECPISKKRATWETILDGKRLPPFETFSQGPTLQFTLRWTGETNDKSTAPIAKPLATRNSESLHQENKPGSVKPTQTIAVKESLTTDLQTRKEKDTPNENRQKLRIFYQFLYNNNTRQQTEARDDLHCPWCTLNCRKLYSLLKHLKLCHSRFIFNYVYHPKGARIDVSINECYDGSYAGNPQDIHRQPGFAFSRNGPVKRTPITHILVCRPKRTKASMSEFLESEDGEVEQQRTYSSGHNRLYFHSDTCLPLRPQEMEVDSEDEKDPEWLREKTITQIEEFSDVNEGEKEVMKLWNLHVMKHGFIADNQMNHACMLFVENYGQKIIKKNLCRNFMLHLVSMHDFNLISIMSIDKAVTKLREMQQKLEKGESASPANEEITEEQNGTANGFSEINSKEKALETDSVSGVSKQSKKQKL
T1 sequence (Q09028 whole entry partner): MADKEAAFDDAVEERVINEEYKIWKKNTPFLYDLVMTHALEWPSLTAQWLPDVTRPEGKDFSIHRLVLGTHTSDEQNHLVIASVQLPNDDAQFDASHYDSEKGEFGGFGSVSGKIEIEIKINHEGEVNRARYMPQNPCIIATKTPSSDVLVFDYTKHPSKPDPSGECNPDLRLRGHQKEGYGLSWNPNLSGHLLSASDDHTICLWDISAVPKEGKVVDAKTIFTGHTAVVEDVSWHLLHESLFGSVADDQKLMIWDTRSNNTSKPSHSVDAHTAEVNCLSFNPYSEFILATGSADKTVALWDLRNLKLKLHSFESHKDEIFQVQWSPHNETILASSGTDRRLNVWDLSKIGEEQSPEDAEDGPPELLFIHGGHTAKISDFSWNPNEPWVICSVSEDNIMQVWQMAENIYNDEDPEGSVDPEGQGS
T1 sequence (Q6ZN18 whole entry partner): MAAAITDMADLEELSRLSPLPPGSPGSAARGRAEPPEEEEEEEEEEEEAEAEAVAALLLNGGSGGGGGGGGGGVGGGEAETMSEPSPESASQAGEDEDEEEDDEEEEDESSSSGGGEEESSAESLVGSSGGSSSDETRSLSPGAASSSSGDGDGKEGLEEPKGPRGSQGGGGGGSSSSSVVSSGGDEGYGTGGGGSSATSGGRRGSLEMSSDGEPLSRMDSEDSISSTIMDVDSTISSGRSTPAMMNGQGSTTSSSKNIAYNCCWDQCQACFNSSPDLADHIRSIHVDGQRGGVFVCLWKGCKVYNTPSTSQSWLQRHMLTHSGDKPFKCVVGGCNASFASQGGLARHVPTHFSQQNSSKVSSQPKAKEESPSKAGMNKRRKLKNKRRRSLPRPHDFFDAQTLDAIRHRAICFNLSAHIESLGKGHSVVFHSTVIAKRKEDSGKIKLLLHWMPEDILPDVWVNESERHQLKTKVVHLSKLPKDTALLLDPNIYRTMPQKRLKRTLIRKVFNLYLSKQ
The data set can be described thus: Kinetic titration (association then dissociation) of the fluorescent probe, TR-FRET. The format is binding. The conditions noted are these: EZH2 Y641N, 25 °C; for Kinetic koff / Kinetic kon: listed as fluorescent EZH2 probe. For orientation: TR-FRET usually uses a lanthanide donor and a delayed reading to cut background.

For data set [3], the target named is T1, PRC2/EZH2Y641N. The data set can be described thus: Equilibrium titration of the fluorescent probe, TR-FRET, -/+ H3K27me3 activator peptide. The conditions noted are these: EZH2 Y641N, 25 °C. The format is binding.
Data set [4] has as its target T2, PRC2/EZH2+/+ (Homo sapiens, UniProt Q15910).
T2 construct: purchased Active Motif
Described as above. The format is binding.

In data set [5] the target is T2, PRC2/EZH2+/+. The data set can be described thus: Kinetic titration (association then dissociation) of the fluorescent probe, TR-FRET. Format: binding. As to conditions: for Kinetic koff / Kinetic kon: listed as fluorescent EZH2 probe.
The next data set concerns EZH2. Set-up: method as in Konze et al. [41]. The conditions noted are these: 40-fold higher enzyme concentration; ref Konze et al. [41]; cited from earlier work.

T2 sequence (Q15910 whole entry): as the sequence (Q15910 whole entry Y641N) above, with N641Y counted along it
T2 sequence (O75530 whole entry partner): as the sequence (O75530 whole entry partner) above
T2 sequence (Q15022 whole entry partner): as the sequence (Q15022 whole entry partner) above
T2 sequence (Q09028 whole entry partner): as the sequence (Q09028 whole entry partner) above
T2 sequence (Q6ZN18 whole entry partner): as the sequence (Q6ZN18 whole entry partner) above

For orientation: Papp A→B means the apparent permeability from the apical to the basolateral side of a cell layer. As usually defined, the Papp B→A is how fast a substance crosses the layer from the basolateral side. With `CCN(c1cc(-c2ccc(CN3CCOCC3)cc2)cc(C(=O)NCc2c(C)cc(C)[nH]c2=O)c1C)C1CCOCC1` [Compound 2, Tazemetostat], in the data set “in vitro”, the Papp A→B at 2 h, 2 µM came out at 11.8 nm/s and the Papp B→A at 2 h, 2 µM came out at 281 nm/s. For the same compound, the “AUC (a.u.)” value in data set [1] is recorded as 79.9 a.u.
`CCN(c1cc(-c2ccc(CN3CCOCC3)cc2)cc(C(=O)NCc2c(C)cc(C)[nH]c2=O)c1C)C1CCOCC1` [Compound 3, Tazemetostat]: the “AUC (a.u.)” value in data set [1] is 93.5 a.u.
In the case of `CCS(=O)(=O)N1CCC([C@@H](C)n2c(C)c(C(=O)NCc3c(OC)cc(C)[nH]c3=O)c3ccccc32)CC1` [Compound 10, CPI-169], the Papp A→B at 2 h, 2 µM in “in vitro” was determined as 0.41 nm/s. In the data set “in vitro”, the apparent permeability from basolateral to apical (Papp B→A) at 2 h, 2 µM came to 147 nm/s. In addition, the IC50 with KARPAS-422 cells is 860 nM; in data set [1] (MDA-MB-231, H3K27 methylation HCA, incubation time 0.5 h, washout time 71.5 h, read-out: Mean IC50), over 1.2e-05 M; in data set [1] (MDA-MB-231, H3K27 methylation HCA, incubation time 2 h, washout time 70 h, read-out: Mean IC50) it was over 1.2e-05 M; in data set [1] (MDA-MB-231, H3K27 methylation HCA, incubation time 4 h, washout time 68 h, read-out: Mean IC50) it was over 1.2e-05 M; in data set [1] (MDA-MB-231, H3K27 methylation HCA, incubation time 24 h, washout time 48 h, read-out: Mean IC50), over 1.2e-05 M; in data set [1] (MDA-MB-231, H3K27 methylation HCA, incubation time 48 h, washout time 24 h, read-out: Mean IC50) it was 3.1e-06 M. Besides, the “AUC (a.u.)” value in data set [1] is listed as 39.5 a.u.
As to `Cc1cc(C)c(CNC(=O)c2cc(Cl)c3c(c2C)O[C@@](C)([C@H]2CC[C@H](N(C)C)CC2)O3)c(=O)[nH]1` [Compound 31, DS-3201], the Papp A→B at 2 h, 2 µM in the data set “in vitro” worked out at 5.99 nm/s. For the same compound, in “in vitro”, the basolateral-to-apical permeability (Papp B→A) at 2 h, 2 µM worked out at 209 nm/s. Further, the “AUC (a.u.)” value in data set [1] was determined as 173.5 a.u. Also, the IC50 in data set [1] (MDA-MB-231, read-out: Mean IC50 (M), H3K27 methylation HCA, incubation time 0.5 h, washout time 71.5 h) stood at 6.9e-07 M; in data set [1] (MDA-MB-231, read-out: Mean IC50 (M), H3K27 methylation HCA, incubation time 1 h, washout time 71 h), 2.3e-07 M; in data set [1] (MDA-MB-231, read-out: Mean IC50 (M), H3K27 methylation HCA, incubation time 24 h, washout time 48 h), 1.2e-07 M; in data set [1] (MDA-MB-231, read-out: Mean IC50 (M), H3K27 methylation HCA, incubation time 48 h, washout time 24 h) it was 3.9e-08 M; in data set [1] (MDA-MB-231, read-out: Mean IC50 (M), H3K27 methylation HCA, incubation time 72 h, washout time 0 h), 3.4e-09 M.
By koff is commonly meant the first-order rate constant of dissociation. A lower koff goes with a long-lived complex. The term kon denotes the rate constant with which the complex forms. A higher kon goes with fast association. For the compound `CCCc1cc(C)[nH]c(=O)c1CNC(=O)c1cc(-c2ccc(N3CCN(CCCCCCNC(=O)CCCCCN4\C(=C/C=C/C=C/C5=[N+](CCOC)c6ccc(S(=O)(=O)O)cc6C5(C)C)C(C)(C)c5cc(S(=O)(=O)O)ccc54)CC3)nc2)cc2c1cnn2C(C)C.O=C(O)C(F)(F)F.O=C([O-])C(F)(F)F` [fluorescent probe, 2-[(1E,3E)-5-[(2Z)-3,3-dimethyl-1-{5-[(6-{4-[5-(4-{[(6-methyl-2-oxo-4-propyl-1,2-dihydropyridin-3-yl)methyl]carbamoyl}-1-(propan-2-yl)-1H-indazol-6-yl)pyridin-2-yl]piperazin-1-yl}hexyl)carbamoyl]pentyl}-5-sulfo-2,3-dihydro-1H-indol-2-ylidene]penta-1,3-dien-1-yl]-1-(2-methoxyethyl)-3,3-dimethyl-5-sulfo-3H-indol-1-ium trifluoroacetic acid trifluoroacetate], the Kd at PRC2/EZH2Y641N [2] (with AP) is 3.8 nM and 3.76 nM; on PRC2/EZH2Y641N [2] (without AP) it was 27 nM; at PRC2/EZH2Y641N [3] (with H3K27me3 (AP)), 2.7 nM and 2.72 nM; on PRC2/EZH2Y641N [3] (without H3K27me3 (AP)), 9.56 nM; on PRC2/EZH2+/+ [4] (EZH2+/+, with H3K27me3 (AP), 25 °C, read-out: Equilibrium KD) it was 0.39 nM and 0.393 nM; at PRC2/EZH2+/+ [4] (EZH2+/+, without H3K27me3 (AP), 25 °C, read-out: Equilibrium KD) it was 1.13 nM. In addition, the Kd is 1.1 ± 0.2 nM at PRC2/EZH2+/+ [4] (wild type EZH2, absence of H3K27me3 peptide, read-out: affinity in equilibrium conditions); 0.4 ± 0.01 nM on PRC2/EZH2+/+ [4] (wild type EZH2, saturating concentrations of H3K27me3 peptide, read-out: affinity in equilibrium conditions); 0.65 nM and 0.653 nM at PRC2/EZH2+/+ [5] (with AP, 25 °C); 1.16 nM at PRC2/EZH2+/+ [5] (without AP, 5 °C); 0.53 nM at PRC2/EZH2+/+ [5] (without AP, 15 °C); 1.4 nM and 1.43 nM on PRC2/EZH2+/+ [5] (without AP, 25 °C). In addition, the Kd turned out to be 5.98 nM on PRC2/EZH2+/+ [5] (without AP, 30 °C) and 3.71 nM on PRC2/EZH2+/+ [5] (without AP, 37 °C). Also, the off-rate constant (koff) at PRC2/EZH2Y641N [2] (with AP) worked out at 0.0035 s⁻¹; at PRC2/EZH2Y641N [2] (without AP), 0.018 s⁻¹; at PRC2/EZH2+/+ [5] (with AP, 25 °C), 0.00073 s⁻¹; at PRC2/EZH2+/+ [5] (without AP, 5 °C), 0.000177 s⁻¹; at PRC2/EZH2+/+ [5] (without AP, 15 °C), 0.000505 s⁻¹; on PRC2/EZH2+/+ [5] (without AP, 25 °C), 0.0027 s⁻¹. In addition, the koff at PRC2/EZH2+/+ [5] (without AP, 30 °C) was 0.0051 s⁻¹; at PRC2/EZH2+/+ [5] (without AP, 37 °C), 0.00823 s⁻¹. In addition, the on-rate (kon) came out at 1e+06 M⁻¹ s⁻¹ on PRC2/EZH2Y641N [2] (with AP); 680000 M⁻¹ s⁻¹ on PRC2/EZH2Y641N [2] (without AP); 1.2e+06 M⁻¹ s⁻¹ on PRC2/EZH2+/+ [5] (with AP, 25 °C); 152000 M⁻¹ s⁻¹ on PRC2/EZH2+/+ [5] (without AP, 5 °C); 953000 M⁻¹ s⁻¹ on PRC2/EZH2+/+ [5] (without AP, 15 °C); 2e+06 M⁻¹ s⁻¹ at PRC2/EZH2+/+ [5] (without AP, 25 °C). In addition, the association rate constant (kon) on PRC2/EZH2+/+ [5] (without AP, 30 °C) came to 853000 M⁻¹ s⁻¹; at PRC2/EZH2+/+ [5] (without AP, 37 °C), 2.22e+06 M⁻¹ s⁻¹. For the same compound, the Kinetic koff at PRC2/EZH2Y641N [2] (with AP) was 0.00345 s⁻¹; at PRC2/EZH2Y641N [2] (without AP), 0.0177 s⁻¹; on PRC2/EZH2+/+ [5] (with AP, 25 °C) it was 0.000728 s⁻¹; on PRC2/EZH2+/+ [5] (without AP, 25 °C), 0.00273 s⁻¹. The Kinetic kon on PRC2/EZH2Y641N [2] (with AP) was 1.01e+06 M⁻¹ s⁻¹; on PRC2/EZH2Y641N [2] (without AP) it was 679000 M⁻¹ s⁻¹; on PRC2/EZH2+/+ [5] (with AP, 25 °C), 1.16e+06 M⁻¹ s⁻¹; at PRC2/EZH2+/+ [5] (without AP, 25 °C), 1.96e+06 M⁻¹ s⁻¹.
As for UNC2239, the IC50 in the data set on EZH2 is 20 nM.
